Experimental data taken from PubChem BioAssay (NCI).
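Results reflect a 48-hour exposure of cells in 96-well plates to compound at five concentrations. The concentration for full growth arrest is given as TGI.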

Columns and labels:
Assay in all cases: NCI tumour cell line growth inhibition, 48 h
SF-295 CNS = tested on: SF-295 CNS
SW-620 colon = tested on: SW-620 colon
TK-10 renal = tested on: TK-10 renal
CAKI-1 renal = tested on: CAKI-1 renal
MDA-MB-435 = tested on: MDA-MB-435
MOLT-4 leukemia = tested on: MOLT-4 leukemia
OVCAR-5 ovarian = tested on: OVCAR-5 ovarian
786-0 renal = tested on: 786-0 renal
MALME-3M melanoma = tested on: MALME-3M melanoma
MCF7 breast = tested on: MCF7 breast
SNB-19 CNS = tested on: SNB-19 CNS
UACC-257 melanoma = tested on: UACC-257 melanoma
A549 NSCLC = tested on: A549 NSCLC
A498 renal = tested on: A498 renal
MDA-N = tested on: MDA-N
K-562 leukemia = tested on: K-562 leukemia
NCI-H23 lung = tested on: NCI-H23 lung
HOP-62 NSCLC = tested on: HOP-62 NSCLC
NCI-H226 lung = tested on: NCI-H226 lung
SF-539 CNS = tested on: SF-539 CNS
EKVX NSCLC = tested on: EKVX NSCLC
U251 CNS = tested on: U251 CNS
SK-MEL-5 melanoma = tested on: SK-MEL-5 melanoma
ACHN renal = tested on: ACHN renal
MDA-MB-231 breast = tested on: MDA-MB-231 breast
UO-31 renal = tested on: UO-31 renal
PC-3 prostate = tested on: PC-3 prostate
RPMI-8226 leukemia = tested on: RPMI-8226 leukemia
NCI-H522 lung = tested on: NCI-H522 lung
CCRF-CEM leukemia = tested on: CCRF-CEM leukemia
SF-268 CNS = tested on: SF-268 CNS
NCI/ADR-RES ovarian = tested on: NCI/ADR-RES ovarian
HCT-116 colon = tested on: HCT-116 colon
DU-145 prostate = tested on: DU-145 prostate
LOX IMVI melanoma = tested on: LOX IMVI melanoma
OVCAR-8 ovarian = tested on: OVCAR-8 ovarian
HT29 colon = tested on: HT29 colon
OVCAR-4 ovarian = tested on: OVCAR-4 ovarian
COLO 205 colon = tested on: COLO 205 colon
IGROV1 ovarian = tested on: IGROV1 ovarian
HL-60(TB) leukemia = tested on: HL-60(TB) leukemia
HCT-15 colon = tested on: HCT-15 colon
SN12C renal = tested on: SN12C renal
KM12 colon = tested on: KM12 colon
SR leukemia = tested on: SR leukemia
OVCAR-3 ovarian = tested on: OVCAR-3 ovarian
HOP-92 NSCLC = tested on: HOP-92 NSCLC
NCI-H460 lung = tested on: NCI-H460 lung
HS 578T breast = tested on: HS 578T breast
SK-MEL-28 melanoma = tested on: SK-MEL-28 melanoma
BT-549 breast = tested on: BT-549 breast
HCC-2998 colon = tested on: HCC-2998 colon

Measured: TGI

O=C(Nc1nc(C23CC4CC(CC(C4)C2)C3)cs1)c1cc2c(ccc3ccccc32)oc1=O
> 100 µM: all assays above
